We go through one compound from paper PMC8557901 (Microbiology Spectrum, 2021).

On the set-up of series [1]: method as in PMID 25791675. Conditions: cited from earlier work.
A short description of series [2]: MTT cell viability assay, murine primary hepatocytes. The note with it: BALB/c, mouse. It is filed as cell-based, BALB/c mice. The source says:
Primary human hepatocytes were isolated from liver segments obtained from adult patients undergoing partial hepatectomy (Service de Chirurgie Digestive, Hépato-Bilio Pancréatique, Hôpital Pitié Salpêtrière, Paris, France). Primary simian hepatocytes were isolated from liver segments collected from healthy Macaca fascicularis monkeys from CEA, Fontenay aux Roses, France. All hepatocytes were obtained using collagenase perfusion as previously described ([40]). Simian hepatocytes were immediately cryopreserved with a Nicool-Freezal controlled rate freezer (Air Liquide Santé, Marne la Vallée, France) and then used when needed after fast thawing at 37°C. Primary murine hepatocytes were isolated from liver segments collected from BALB/c mice. Human and murine hepatocytes were used directly after their isolation. Cells were seeded in 96-well plates (Falcon; Becton Dickinson Labware Europe, France) coated with collagen I (BD Bioscience, USA) at a density of 80,000 cells per well. […]
The toxicity of M1 toward primary hepatocytes and HepG2-CD81 cells was evaluated through the MTT {[3-(4,5-dimethyl-2-thiazolyl)-2,5-diphenyl-2H-tetrazolium bromide]} test ([42]). […] Then, MTT was replaced by a mixture of DMSO-ethanol (1:1) to dissolve formazan crystals and the absorbance was read at 540 nm on a FlexStation plate reader.

In series [3] the test system is P. falciparum mature gametocytes (stage V). Kind of series: Exflagellation-blocking assay. The class given is cell-based, Plasmodium falciparum. The note with it: 10 μM, 24 h preincubation of stage V gametocytes. As to the method: Exflagellation-blocking assays were performed according to published protocols ([48], [49]). Assays were performed using gametocyte cultures providing high-enough numbers of exflagellation centers for meaningful measurement (>30 centers of exflagellation in 50 microscope fields at 400× magnification). […] The 6-well plate was incubated at 37°C. After treatment with M1 during 2 h or 24 h, exflagellation was induced by decreasing the temperature to 25°C and replacing culture medium with AB serum. The numbers of exflagellation centers were recorded between 10 and 30 min after induction and compared to the numbers in the control (DMSO treatment). Activity was expressed as the percentage of exflagellation inhibition compared to the control.

Another series has as its system Plasmodium berghei. Also on record: method as in PMID 25791675. Conditions: 2.5 mg/kg twice a day for 3 days; untreated group 9%; cited from earlier work.
The nature of series [4]: Cytotoxicity on the MDCK renal cell line (MTT). It is filed as cell-based, canine. Conditions: dog, MDCK cells. As to the method:
MDCK cell line (Madin-Darby Canine Kidney cells) was maintained at 37 °C, 5% CO2 with 90% humidity in DMEM supplemented with 5% fetal bovine serum, 1% L-glutamine (200 mM), penicillin (100 U/mL) and streptomycin (100 μg/mL) (complete medium). The evaluation of Gamhepathiopine cytotoxicity on this cell line was performed according to the method of Mosman with slight modifications. Briefly, 3.10^4 cells in 100 μL of complete medium were inoculated into each well of 96-well plates and incubated at 37 °C in a humidified 5% CO2. After 24 h incubation, to obtain adherent cells, 100 μL of medium with various concentrations of Gamhepathipoine dissolved in DMSO were added and refreshed on a daily basis for 72 h at 37 °C. Each sample was tested on 4 technical replicates. The MTT solution (100µL/well, 0.5 mg/mL in medium without FBS) was then added to each well. Cells were incubated for 4 h at 37 °C. The MTT solution was then removed and a mixture of DMSO/Ethanol (1:1; 100 μL/well) was added to dissolve the resulting blue formazan crystals. The absorbance was measured at 540 nm on a Flex Station Microplate Reader.

Series [5] deals with P. falciparum F32-ART5 (artemisinin-resistant). The series is described as follows: Standard in vitro chemosensitivity assay (hypoxanthine uptake), F32-ART5. The class given is cell-based. The note with it: Plasmodium falciparum, F32, 48 h, read-out: Mean EC50 ± SD. As to the method: The Plasmodium falciparum artemisinin-resistant strain F32-ART5 and its twin artemisinin-sensitive line F32-TEM ([30], [31]) were cultivated at 37°C with 5% CO2 in human red blood cells (EFS [French Blood Bank]) diluted to 2% hematocrit in RPMI 1640 medium supplemented with 5% human serum (EFS) as previously reported ([47]).
In vitro susceptibility of P. falciparum parasites was determined by using the standard hypoxanthine uptake inhibition assay as described previously ([51]) with some modifications ([52]). After D-sorbitol treatment, parasites synchronized at the ring stage were exposed for 48 h, with [^3H]hypoxanthine (Perkin Elmer, France), to a range of concentrations of the different tested compounds. […] Each result represents 3 independent experiments.

On to `Cc1ccc(-c2cc3nc(NC(C)(C)C)[nH]c(=O)c3s2)cc1` [Metabolite M1, 2-(tert-Butylamino)-6-(p-tolyl)thieno[3,2-d]pyrimidin-4(3H)-one], for which the Ames test result in series [1] is reported as “negative”. In series [2], this compound gave a CC50 at 2 days of more than 60 µM. For the same compound, the “mean percentage for male exflagellation” value in series [3] came to 7.5%. The “parasitemia at day 4” value in the series with Plasmodium berghei is recorded as 4.9%. In series [4], this compound yielded a CC50 at 72 h of 39.5 µM. Also, the EC50 in series [5] is 0.227 ± 0.04 µM.
